Reference: publication PMC4706618, “Comparison of bactericidal and cytotoxic activities of trichogin analogs” (Data in Brief, 2015)
In brackets after ≈: the same amount, converted by molar mass. Where two headings read alike, the source gives them in different places. Non-standard residues stand in square brackets, D forms with d. Residues, ends and D or L forms follow the SMILES beside them. *: point of attachment. Leu(ol) = CC(C)C[C@H](N)CO; Octanoyl = CCCCCCCC(=O)*; Aib = CC(C)(N)C(=O)O

Experiments:
[1] = test system: S. aureus, ATCC BAA-44 (methicillin-resistant strain); assay type: cell-based, Staphylococcus aureus
Procedure: (§1) E. coli ATCC 25922, the methicillin-resistant strain of S. aureus, ATCC BAA-44, P. aeruginosa ATCC 25668 and S. epidermidis ATCC 700565 was a kind gift of Prof. Elena Reddi (Dept. of Biology, University of Padova, Italy). Cultures were maintained in Luria Bertani (LB) agar. MICs (Minimal inhibitory concentrations) of the peptides were determined using the broth microdilution method. Two-fold serial dilutions of each peptide, from 1 to 64 μM, were prepared in LB and 50 μl per well were arranged in sterile 96-well plates (Falcon). Then, an aliquot of bacterial cell suspension was added to each well, at a final concentration of 5×10^5 CFU/ml.

[2] = test system: Gram^− and Gram^+ bacteria; assay: Antibacterial activity, all strains taken together; assay type: cell-based; conditions: additional U at position 6 or U1 replaced with L; in words
Procedure: as §1

[3] = test system: human cells (lymphocytes, PMNs, monocytes, HL60, HeLa, A431, A549, CCD34Lu); assay: Cytotoxicity on human cells, MTS reduction and LDH release; assay type: cell-based; conditions: 24 h, MTS/LDH EC50, all tested cells; in words
Procedure: (§2) To monitor the possible differential cytocidal effect of trichogin and its analogs on human cells (healthy and cancer cells, non-leukocytes and leukocytes), we incubated the peptides with (i) primary human leukocytes (lymphocytes, PMNs and monocytes), freshly isolated from blood of healthy donors (ii) the monocytes-like HL60 cell line from human myeloid leukemia, and (iii) three tumor-derived non-leukocyte cells lines: HeLa ([…]), A431 (human epidermoid carcinoma) and A549 (human lung carcinoma) and the in vitro stabilized line CCD34Lu (from human normal lung).
(§3) HeLa, A431 and CCD34-Lu cells were maintained in DMEM medium (Gibco), A549 in F12 medium (Gibco) and HL60 in RPMI medium (Gibco), supplemented with 10% FCS (Euroclone) and antibiotics (penicillin and streptomycin, 100 U/ml, Invitrogen) at 37 °C in a humidified atmosphere containing 5% (v/v) CO2; cells were split every 2–3 days. Human monocytes, polymorphonuclear leukocytes (PMNs) and lymphocytes were purified from buffy coats of healthy donors, kindly provided by the Centro Immunotrasfusionale, Hospital of Padova. Briefly, for monocyte purification, peripheral blood mononuclear cells (PBMC) were isolated from buffy coats of healthy donors by density gradient centrifugation on Ficoll-Paque Plus (GE Health care), which density is optimized for the isolation of mononuclear cells. Separate monocyte and T-cell fractions were obtained from PBMCs by Percoll density gradient centrifugation (GE Health care); residual lymphocytes were removed by incubation in 2% fetal calf serum (FCS) RPMI at 37 °C and subsequently washed to eliminate non adherent cells. Unless otherwise specified, cells were kept at 37 °C in a humidified atmosphere containing 5% (v/v) CO2 in RPMI-1640 supplemented with 10% FCS. For PMNs purification, the pellet of cells obtained after the centrifugation on Ficoll gradient was subjected to dextran erythrocytes precipitation; residual erythrocytes were removed by hypotonic lysis in 155 mM NH4Cl, 10 mM KHCO3, and […] Na2EDTA at pH 7.4 and cells were cultured in RPMI medium, supplemented with 10% FCS. For lymphocytes preparation, buffy coats were incubated with 50 μl/ml of Rosette Sep® Human T Cell Enrichment Cocktail (StemCell Technologies). Blood was then centrifuged over a Ficoll gradient and cells were cultured in RPMI medium, supplemented with 10% FCS.
(§4) Twenty-four hours before the experiment, A431, HeLa, A549 and CC34-Lu cells were detached by means of trypsin treatment (Gibco), counted and seeded onto a 96 wells/plate (8×10^3 cells/well, Falcon). After purification, monocytes were seeded onto a 96 wells/plate (2×10^6/well) and left to adhere to the plastic; then cells were immediately treated with stimuli. PMNs and lymphocytes (2×10^6 cells/well) and HL60 cells (40×10^3) were seeded onto cell plates and subsequently treated. Different peptides were diluted in culture medium (from 20 μM to 1 μM) and added to the cells. As a […] control cells were treated with medium without stimuli. Twenty-four hours after treatment, the cell supernatant was collected for subsequent assay (LDH assay) and cells were tested using a CellTiter 96® AQueous One Solution Reagent (Promega). Plates were read with an ELISA reader (Amersham Biosciences) at 492 nm. Data were expressed as % of absorbance value compared to untreated cells (assumed as 100% viable). Alternatively, the EC50 (the concentration of drug where 50% of cells died) was calculated for each peptide and each kind of tested cell.
(§5) 50 μl of the cell supernatant was tested with a CytoTox 96® Non-Radioactive Cytotoxicity Assay kit (Promega). EC50 (the concentration of drug that induced the lysis of 50% of the total cell number) was calculated for each peptide and each kind of tested cell.

P. aeruginosa ATCC 25668 = assay type: cell-based, Pseudomonas aeruginosa
Procedure: as §1

[4] = test system: S. epidermidis ATCC 700565; assay type: cell-based, Staphylococcus epidermidis
Procedure: as §1

E. coli ATCC 25922 = assay type: cell-based, Escherichia coli
Procedure: as §1

[5] = Cytotoxicity on human cells, MTS reduction and LDH release; assay type: cell-based; conditions: human, from MTS and LDH EC50 values, compared with trichogin, all cell models, read-out: reduction of cytocidal effect / cell toxicity (% inhibition)
Procedure: as §2, §3, §4, §5

[6] = after 24 h at 37 °C, broth microdilution in LB, 5×10^5 CFU/ml, ±SE, N≥4, peptide dose range 0–64 µM

Compound	MIC S. aureus ([1]; ATCC BAA-44, 24 h) [µM]	antibacterial activity compared with the K-containing analogs [2]	cytotoxicity compared with trichogin or the corresponding analog [3]	MIC P. aeruginosa (P. aeruginosa ATCC 25668; ATCC 25668, 24 h) [µM]	MIC S. epidermis ([4]; ATCC 700565, 24 h) [µM]	MIC E. coli (E. coli ATCC 25922; ATCC 25922, 24 h) [µM]	inhibition at 24 h [5] [%]	MIC S. aureus [1, 6] [µM]	MIC S. epidermis [4, 6] [µM]	MIC P. aeruginosa (P. aeruginosa ATCC 25668; [6]) [µM]	MIC E. coli (E. coli ATCC 25922; [6]) [µM]	change of anti S. aureus activity compared with trichogin ([1]; MIC after 24 h, in words)
CCCCCCCC(=O)NC(C)(C)C(=O)N[C@@H](CCCCN)C(=O)N[C@@H](CC(C)C)C(=O)NC(C)(C)C(=O)N[C@@H](CCCCN)C(=O)NC(C)(C)C(=O)N[C@@H](CC(C)C)C(=O)NC(C)(C)C(=O)N[C@@H](CCCCN)C(=O)N[C@H](C(=O)N[C@H](CO)CC(C)C)[C@@H](C)CC [K2K5K9U6] (Octanoyl-[Aib]KL[Aib]K[Aib]L[Aib]KI[Leu(ol)])	4 ± 0 (≈ 5.23 µg/mL)	failed to increase the antibacterial activity	increased cytotoxicity	8 ± 0 (≈ 10.5 µg/mL)	8 ± 0 (≈ 10.5 µg/mL)	8 ± 0 (≈ 10.5 µg/mL)						
CCCCCCCC(=O)NC(C)(C)C(=O)N[C@@H](CCCCN)C(=O)N[C@@H](CC(C)C)C(=O)NC(C)(C)C(=O)N[C@@H](CCCCN)C(=O)NCC(=O)N[C@@H](CC(C)C)C(=O)NC(C)(C)C(=O)N[C@@H](CCCCN)C(=O)N[C@H](C(=O)N[C@H](CO)CC(C)C)[C@@H](C)CC [K2K5K9] (Octanoyl-[Aib]KL[Aib]KGL[Aib]KI[Leu(ol)])	4.3 ± 1.8 (≈ 5.5 µg/mL)			13.3 ± 4.1 (≈ 17 µg/mL)	4 ± 0.9 (≈ 5.12 µg/mL)	14.9 ± 8.6 (≈ 19.1 µg/mL)						
CCCCCCCC(=O)NC(C)(C)C(=O)N[C@@H](CCCCN)C(=O)N[C@@H](CC(C)C)C(=O)NC(C)(C)C(=O)N[C@@H](CCCCN)C(=O)NCC(=O)N[C@@H](CC(C)C)C(=O)NC(C)(C)C(=O)NCC(=O)N[C@H](C(=O)N[C@H](CO)CC(C)C)[C@@H](C)CC [K2K5] (Octanoyl-[Aib]KL[Aib]KGL[Aib]GI[Leu(ol)])	3.3 ± 1.3 (≈ 3.99 µg/mL)			16 ± 5 (≈ 19.3 µg/mL)	5 ± 2.4 (≈ 6.04 µg/mL)	13.7 ± 3.9 (≈ 16.6 µg/mL)						
CCCCCCCC(=O)NC(C)(C)C(=O)N[C@@H](CCCCN)C(=O)N[C@@H](CC(C)C)C(=O)NC(C)(C)C(=O)NCC(=O)N[C@@H](CCCCN)C(=O)N[C@@H](CC(C)C)C(=O)NC(C)(C)C(=O)NCC(=O)N[C@H](C(=O)N[C@H](CO)CC(C)C)[C@@H](C)CC [K2K6] (Octanoyl-[Aib]KL[Aib]GKL[Aib]GI[Leu(ol)])	2.8 ± 1.1 (≈ 3.38 µg/mL)			17.6 ± 8.8 (≈ 21.3 µg/mL)	3.2 ± 2.6 (≈ 3.87 µg/mL)	12.6 ± 4.3 (≈ 15.2 µg/mL)						
CCCCCCCC(=O)NC(C)(C)C(=O)NCC(=O)N[C@@H](CC(C)C)C(=O)NC(C)(C)C(=O)N[C@@H](CCCCN)C(=O)N[C@@H](CCCCN)C(=O)N[C@@H](CC(C)C)C(=O)NC(C)(C)C(=O)NCC(=O)N[C@H](C(=O)N[C@H](CO)CC(C)C)[C@@H](C)CC [K5K6]	4 ± 0 (≈ 4.83 µg/mL)			16 ± 0 (≈ 19.3 µg/mL)	4 ± 1 (≈ 4.83 µg/mL)	16 ± 0 (≈ 19.3 µg/mL)	50 to 60					
CCCCCCCC(=O)NC(C)(C)C(=O)NCC(=O)N[C@@H](CC(C)C)C(=O)NC(C)(C)C(=O)N[C@@H](CCCCN)C(=O)NCC(=O)N[C@@H](CC(C)C)C(=O)NC(C)(C)C(=O)NCC(=O)N[C@H](C(=O)N[C@H](CO)CC(C)C)[C@@H](C)CC [K5] (Octanoyl-[Aib]GL[Aib]KGL[Aib]GI[Leu(ol)])				>64		8 ± 2 (≈ 9.1 µg/mL)		1 ± 0 (≈ 1.14 µg/mL)	2 ± 0 (≈ 2.28 µg/mL)			
CCCCCCCC(=O)N[C@@H](CC(C)C)C(=O)N[C@@H](CCCCN)C(=O)N[C@@H](CC(C)C)C(=O)NC(C)(C)C(=O)NCC(=O)NCC(=O)N[C@@H](CC(C)C)C(=O)NC(C)(C)C(=O)NCC(=O)N[C@H](C(=O)N[C@H](CO)CC(C)C)[C@@H](C)CC [L1K2] (Octanoyl-LKL[Aib]GGL[Aib]GI[Leu(ol)])	4.6 ± 1.5 (≈ 5.36 µg/mL)	failed to increase the antibacterial activity	not significantly different	>64	4.7 ± 1.6 (≈ 5.48 µg/mL)	22.9 ± 8.6 (≈ 26.7 µg/mL)						
CCCCCCCC(=O)N[C@@H](CC(C)C)C(=O)NCC(=O)N[C@@H](CC(C)C)C(=O)NC(C)(C)C(=O)NCC(=O)NCC(=O)N[C@@H](CC(C)C)C(=O)NC(C)(C)C(=O)N[C@@H](CCCCN)C(=O)N[C@H](C(=O)N[C@H](CO)CC(C)C)[C@@H](C)CC [L1K9] (Octanoyl-LGL[Aib]GGL[Aib]KI[Leu(ol)])		failed to increase the antibacterial activity	not significantly different					4.7 ± 1.6 (≈ 5.48 µg/mL)	4.6 ± 1.5 (≈ 5.36 µg/mL)	>64	41.1 ± 15.6 (≈ 47.9 µg/mL)	
CCCCCCCC(=O)N[C@@H](CC(C)C)C(=O)NCC(=O)N[C@@H](CC(C)C)C(=O)N[C@@H](CC(C)C)C(=O)NCC(=O)NCC(=O)N[C@@H](CC(C)C)C(=O)N[C@@H](CC(C)C)C(=O)NCC(=O)N[C@H](C(=O)N[C@H](CO)CC(C)C)[C@@H](C)CC [L1L4L8] (Octanoyl-LGLLGGLLGI[Leu(ol)])							50 to 70					
CCCCCCCC(=O)N[C@@H](CC(C)C)C(=O)NCC(=O)N[C@@H](CC(C)C)C(=O)NC(C)(C)C(=O)NCC(=O)NCC(=O)N[C@@H](CC(C)C)C(=O)N[C@@H](CC(C)C)C(=O)NCC(=O)N[C@H](C(=O)N[C@H](CO)CC(C)C)[C@@H](C)CC [L1L8] (Octanoyl-LGL[Aib]GGLLGI[Leu(ol)])	32 ± 0 (≈ 35.9 µg/mL)			>64	>64	>64						
CCCCCCCC(=O)NC(C)(C)C(=O)NCC(=O)N[C@@H](CC(C)C)C(=O)N[C@@H](CC(C)C)C(=O)NCC(=O)NCC(=O)N[C@@H](CC(C)C)C(=O)NC(C)(C)C(=O)NCC(=O)N[C@H](C(=O)N[C@H](CO)CC(C)C)[C@@H](C)CC [L4] (Octanoyl-[Aib]GLLGGL[Aib]GI[Leu(ol)])							50 to 70	>64	>64	>64	>64	no such increase
